We go through eight molecules from patent US8962613B2, “P2X4 receptor antagonist” (Nippon Chemiphar Co., Ltd., priority 2010, dated 2015).

Molecules are shown by their SMILES. Counter-ions that a name gives are not always drawn. Like-named read-outs stand apart in the source and are kept apart here.

The test has as its target T1, human P2X4 receptors (Homo sapiens, UniProt Q99571).
T1 sequence (Q99571 1-388): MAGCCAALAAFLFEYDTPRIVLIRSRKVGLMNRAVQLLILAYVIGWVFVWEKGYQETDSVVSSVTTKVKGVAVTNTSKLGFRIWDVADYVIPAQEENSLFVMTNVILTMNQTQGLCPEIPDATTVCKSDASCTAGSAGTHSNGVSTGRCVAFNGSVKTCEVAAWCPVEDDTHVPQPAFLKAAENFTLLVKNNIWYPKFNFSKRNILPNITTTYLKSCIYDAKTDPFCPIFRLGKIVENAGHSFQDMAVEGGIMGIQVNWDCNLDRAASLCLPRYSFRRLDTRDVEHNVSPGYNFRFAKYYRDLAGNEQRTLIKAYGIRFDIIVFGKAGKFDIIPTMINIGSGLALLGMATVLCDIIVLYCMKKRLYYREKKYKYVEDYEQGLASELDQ
The test is described as follows: P2X4 receptor antagonism, intracellular calcium influx assay (Fura-2 AM, ATP-induced). In kind it is cell-based. The following applies: for IC50: 1321N1 cells stably expressing human P2X4 receptors, compound added 15 min before ATP, read-out: Inhibition activities (IC50 μM). The procedure: 1321N1 cells stably expressing human P2X4 receptors were adopted for calcium influx assay. P2X4/1321N1 cells were plated in 96-well assay plate and cultured for 24 hours in an atmosphere of 5% CO2 at 37° C. Fura-2 AM calcium indicator dissolved in an extracellular solution for calcium imaging was loaded onto cells for 45 minutes at room temperature. The fluorescence was detected by FLUOstar OPTIMA micro plate reader (BMG labtech). The cells were alternatively illuminated with two excitations wavelengths (340 nm and 380 nm) via xenon lamp and the emitted fluorescence was measured at 510 nm. The fluorescence changes after the treatment of 1 μM ATP were monitored and determined the fluorescence ratio (F340/F380) as the index of intracellular calcium change. Tested compounds were treated to cells 15 min before the addition of ATP and the inhibition activities of compounds were calculated by comparing the Ca^2+ response with control in the absence of tested compound.
P2X4 receptor antagonism of the compound of the present invention was measured as described below.
1321N1 cells stably expressing human P2X4 receptors were plated in 96-well assay plate and cultured for 24 hours at 37° C. in an atmosphere of 5% CO2 for intracellular calcium assay. Fura-2 AM calcium fluorescent indicator was used for the intracellular calcium assay. Fura-2 AM was dissolved in an assay buffer, and the solution was loaded onto cells. The obtained plate was used for fluorescent assay.
Test compounds were treated to cells for 15 minutes before the addition of ATP, and the response to intracellular calcium influx induced by addition of ATP was monitored by a micro plate reader. The fluorescence ratio of excitations wavelengths of 340 nm and 380 nm was used as the index of intracellular calcium change. The inhibition activities of the test compounds were calculated by comparison with the absence of the test compound (control).
In general terms: Calcium assays in cells follow changes in intracellular calcium, usually with a dye or a luminescent sensor.

The mark [1] stands for this setting: Table 19, fluorescence ratio F340/F380 vs control.
Setting [2] is: Table 20, same manner as in Example 19.

Take `O=C1CC(=O)N(c2cccc(-c3nnn[nH]3)c2)c2ccc3c(c2N1)CCCC3.[Na]` [Example 2, 5-[3-(1H-Tetrazol-5-yl)phenyl]-8,9,10,11-tetrahydronaphtho[2,1-b][1,4]diazepine-2,4(3H,5H)-dione sodium salt]: the “P2X4 receptor antagonism (in words)” value (summary statement on Tables 19 and 20) is recorded as “excellent P2X4 receptor antagonism”. A word on the IC50: it is the concentration needed to halve the response being measured. As to `O=C1CC(=O)N(c2cccc(O)c2)c2ccc3c(c2N1)CCCC3` [Example 3, 5-(3-Hydroxyphenyl)-8,9,10,11-tetrahydronaphtho[2,1-b][1,4]diazepine-2,4(3H,5H)-dione], the IC50 under setting [1] worked out at 3.9 µM. Take `O=C1CC(=O)N(c2cccc(-c3nnn[nH]3)c2)c2ccc3c(c2N1)CCC3` [Example 5, 5-[3-(1H-Tetrazol-5-yl)phenyl]-5,8,9,10-tetrahydroindeno[5,4-b][1,4]diazepine-2,4(1H,3H)-dione sodium salt]: the concentration for half-maximal inhibition (IC50) under setting [1] was determined as 0.97 µM. For `Nc1cccc(N2C(=O)CC(=O)Nc3c2ccc2c3CCCC2)c1` [Example 8, 5-(3-Aminophenyl)-1,5,8,9,10,11-hexahydronaphtho[1,2-b][1,4]diazepine-2,4-dione hydrochloride], under setting [2], the half-inhibitory concentration (IC50) amounted to 4 µM. On the same count and under the same terms, the result for `Nc1ccc(N2C(=O)CC(=O)Nc3c2ccc2c3CCCC2)cc1` [Example 10, 5-(4-Aminophenyl)-1,5,8,9,10,11-hexahydronaphtho[1,2-b][1,4]diazepine-2,4-dione] reads 6.1 µM.

`CNc1ccc(N2C(=O)CC(=O)Nc3c2ccc2c3CCCC2)cc1` [Example 11, 5-(4-Methylaminophenyl)-1,5,8,9,10,11-hexahydronaphtho[1,2-b][1,4]diazepine-2,4-dione hydrochloride]: the IC50 under setting [2] was 3.3 µM. Turning to `COc1ccc(N2C(=O)CC(=O)Nc3c2ccc2c3CCCC2)cc1` [Example 13, 5-(4-Methoxyphenyl)-1,5,8,9,10,11-hexahydronaphtho[1,2-b][1,4]diazepine-2,4-dione], the IC50 under setting [2] stood at 6.9 µM. On the same count and under the same terms, the result for `O=C1CC(=O)N(c2ccc(O)cc2)c2ccc3c(c2N1)CCCC3` [Example 14, 5-(4-Hydroxyphenyl)-1,5,8,9,10,11-hexahydronaphtho[1,2-b][1,4]diazepine-2,4-dione] reads 3.8 µM.
